We go through six compounds from ChEMBL document CHEMBL2010659, “Synthesis of novel long wavelength cationic chlorins via stereoselective aldol-like condensation” (Bioorg Med Chem Lett, 2012).

Common to all, as to assay type: functional, cell-based
In experiment [1] the test system is HeLa. Kind of experiment: Cytotoxicity against human HeLa cells up to 10 uM after 12 hrs by WST-8 assay.
Experiment [2] deals with HeLa. The experiment is described as follows: Cytotoxicity against human HeLa cells of light exposed compound up to 10 uM after 12 hrs by WST-8 assay.
In experiment [3] the test system is HeLa. Kind of experiment: Cytotoxicity against human HeLa cells of light exposed compound after 12 hrs by WST-8 assay.

SMILES strings stand for the structures. The source made the active and inactive calls. The calls are words filed in the database; no cut-off is given here.

Consider `CCC1=C(C)c2cc3[nH]c(cc4nc(c5c6[nH]c(cc1n2)c(C)c6C(=O)N(OC)C5=O)[C@@H](CCC(=O)OC)[C@@H]4C)c(C)c3/C=C/c1cccc[n+]1C`, for which the outcome in the experiment on HeLa [1] was inactive. Besides, the result with HeLa [2] was Active. Moreover, in the experiment with HeLa [3], the Activity entry is “Dose-dependent effect” and the IC50 was found to be 0.11 µM.

As to `CCC1=C(C)c2cc3[nH]c(cc4nc(c5c6[nH]c(cc1n2)c(C)c6C(=O)C5)[C@@H](CCC(=O)OC)[C@@H]4C)c(C)c3/C=C/c1ccc2ccccc2[n+]1C`, the outcome in the experiment with HeLa [1] was inactive. Further, the result with HeLa [2] was Active. Besides, in the experiment with HeLa [3], the Activity entry was “Dose-dependent effect” and 5.36 µM corresponded to half-maximal inhibition (IC50).

Regarding `CCC1=C(C)c2cc3[nH]c(cc4nc(c5c6[nH]c(cc1n2)c(C)c6C(=O)C5)[C@@H](CCC(=O)OC)[C@@H]4C)c(C)c3/C=C/c1cc[n+](C)cc1`, in the experiment on HeLa [1], the outcome was inactive. Moreover, in the experiment on HeLa [2], the outcome was Active. In the experiment with HeLa [3], the Activity result was “Dose-dependent effect” and the IC50 turned out to be 7.94 µM.

Take `C=Cc1c(C)c2cc3nc(c4c5[nH]c(cc6nc(cc1[nH]2)C(C)=C6CC)c(C)c5C(=O)C4)[C@@H](CCC(=O)OC)[C@@H]3C` [METHYL PYROPHEOPHORBIDE A]: the outcome in the experiment with HeLa [1] was inactive. Further, the outcome with HeLa [2] was Active. In the experiment on HeLa [3], the Activity entry was “Dose-dependent effect” and half-maximal inhibition (IC50) was put at 0.28 µM.

Consider `C=Cc1c(C)c2cc3nc(c4c5[nH]c(cc6nc(cc1[nH]2)C(C)=C6CC)c(C)c5C(=O)N(OC)C4=O)[C@@H](CCC(=O)OC)[C@@H]3C`, for which, in the experiment on HeLa [1], the outcome was inactive. In addition, in the experiment with HeLa [2], the outcome was Active. In addition, in the experiment on HeLa [3], the Activity result was “Dose-dependent effect” and the midpoint of inhibition, the IC50, lay at 2.71 µM.

As to `CCC1=C(C)c2cc3[nH]c(cc4nc(c5c6[nH]c(cc1n2)c(C)c6C(=O)N(OC)C5=O)[C@@H](CCC(=O)OC)[C@@H]4C)c(C)c3/C=C/c1ccc2ccccc2[n+]1C`, in the experiment with HeLa [1], the result was inactive. Besides, the outcome with HeLa [2] was Active. In addition, in the experiment with HeLa [3], the Activity entry was “Dose-dependent effect” and the IC50 was 0.97 µM.
